Assay results published in patent publication US11773140B2, “Gram-negative lysin-antimicrobial peptide (AMP) polypeptide constructs, lysins, isolated polynucleotides encoding same and uses thereof in human serum” (priority 2018, dated 2023).
Like-named read-outs stand apart in the source and are kept apart here.

Experiments:
Format in all cases: cell-based, Pseudomonas aeruginosa
[1] = test system: carbapenem-resistant P. aeruginosa isolate PA22
Procedure: (§1) Such resensitization may be determined by combining the present lysins or lysin-AMP polypeptide constructs with an antibiotic in a checkerboard assay as described herein. Antibiotic-resistant bacteria, such as carbapenem-resistant P. aeruginosa, are added to the lysin or lysin-AMP polypeptide construct combination. […] See Clinical and Laboratory Standards Institute (CLSI), CLSI. […] M100 Performance Standards for Antimicrobial Susceptibility Testing; 29th Edition. Clinical and Laboratory Standards Institute, Wayne, Pa.
(§2) Up to seven carbapenem-resistant isolates were assessed. […] See Clinical and Laboratory Standards Institute (CLSI), CLSI. […] M100 Performance Standards for Antimicrobial Susceptibility Testing; 29th Edition. Clinical and Laboratory Standards Institute, Wayne, Pa.

[2] = test system: carbapenem-resistant P. aeruginosa isolate PA24
Procedure: as §1, §2

[3] = test system: carbapenem-resistant P. aeruginosa isolate PA21
Procedure: as §1, §2

[4] = test system: carbapenem-resistant P. aeruginosa isolate PA20
Procedure: as §1, §2

[5] = test system: carbapenem-resistant P. aeruginosa isolate PA19
Procedure: as §1, §2

[6] = test system: carbapenem-resistant isolate WC-452
Procedure: as §1, §2

[7] = test system: carbapenem-resistant P. aeruginosa isolate PA23
Procedure: as §1, §2

Row | SMILES | carbapenem susceptibility category, Alone [1] | carbapenem MIC, Combination ([1]; in combination with GN121) [µg/mL] | carbapenem MIC, Combination ([1]; in combination with GN123) [µg/mL] | carbapenem susceptibility category, Combination ([1]; in combination with GN123) | carbapenem susceptibility category, Alone [2] | carbapenem MIC, Combination ([2]; in combination with GN121) [µg/mL] | carbapenem MIC, Combination ([2]; in combination with GN123) [µg/mL] | carbapenem susceptibility category, Combination ([2]; in combination with GN123) | carbapenem susceptibility category, Alone [3] | carbapenem MIC, Combination ([3]; in combination with GN121) [µg/mL] | carbapenem MIC, Combination ([3]; in combination with GN123) [µg/mL] | carbapenem susceptibility category, Combination ([3]; in combination with GN123) | carbapenem susceptibility category, Alone [4] | carbapenem MIC, Combination ([4]; in combination with GN121) [µg/mL] | carbapenem MIC, Combination ([4]; in combination with GN123) [µg/mL] | carbapenem susceptibility category, Combination ([4]; in combination with GN123) | carbapenem susceptibility category, Alone [5] | carbapenem MIC, Combination ([5]; in combination with GN121) [µg/mL] | carbapenem MIC, Combination ([5]; in combination with GN123) [µg/mL] | carbapenem susceptibility category, Combination ([5]; in combination with GN123) | other results
1 | C[C@@H](O)[C@H]1C(=O)N2C(C(=O)O)=C(S[C@@H]3CN[C@H](C(=O)N(C)C)C3)[C@H](C)[C@H]12 [MEROPENEM, meropenem] | R ((R) = resistant) | 1 | 1 | S ((S) = sensitive) | R ((R) = resistant) | 1 | 2 | S ((S) = sensitive) | R ((R) = resistant) | 2 | 1 | S ((S) = sensitive) | R ((R) = resistant) | 1 | 0.5 | S ((S) = sensitive) | R ((R) = resistant) | 1 | 0.5 | S ((S) = sensitive) | carbapenem susceptibility category, Alone [6]: R ((R) = resistant); carbapenem MIC, Combination ([6]; in combination with GN121): 1 µg/mL; carbapenem MIC, Combination ([6]; in combination with GN123): 1 µg/mL; carbapenem susceptibility category, Combination ([6]; in combination with GN123): S ((S) = sensitive); carbapenem susceptibility category, Alone [7]: R ((R) = resistant); carbapenem MIC, Combination ([7]; in combination with GN121): 2 µg/mL; carbapenem MIC, Combination ([7]; in combination with GN123): 0.5 µg/mL; carbapenem susceptibility category, Combination ([7]; in combination with GN123): S ((S) = sensitive)
2 | C[C@@H](O)[C@H]1C(=O)N2C(C(=O)O)=C(SCCN=CN)C[C@H]12 [imipenem] | R ((R) = resistant) | 2 | 2 | S ((S) = sensitive) | R ((R) = resistant) | 1 | 2 | S ((S) = sensitive) | R ((R) = resistant) | 1 | 0.5 | S ((S) = sensitive) | R ((R) = resistant) | 0.5 | 1 | S ((S) = sensitive) | R ((R) = resistant) | 1 | 0.5 | S ((S) = sensitive) | carbapenem susceptibility category, Combination ([1]; in combination with GN121): S ((S) = sensitive); carbapenem susceptibility category, Combination ([2]; in combination with GN121): S ((S) = sensitive); carbapenem susceptibility category, Combination ([3]; in combination with GN121): S ((S) = sensitive); carbapenem susceptibility category, Combination ([4]; in combination with GN121): S ((S) = sensitive); carbapenem susceptibility category, Combination ([5]; in combination with GN121): S ((S) = sensitive); carbapenem susceptibility category, Alone [6]: R ((R) = resistant); carbapenem MIC, Combination ([6]; in combination with GN123): 1 µg/mL; carbapenem susceptibility category, Combination ([6]; in combination with GN123): S ((S) = sensitive); MIC, Alone ([7]; agent alone (carbapenem or lysin)): 16 µg/mL; carbapenem susceptibility category, Alone [7]: R ((R) = resistant); carbapenem susceptibility category, Combination ([7]; in combination with GN121): S ((S) = sensitive); carbapenem MIC, Combination ([7]; in combination with GN123): 0.25 µg/mL; carbapenem susceptibility category, Combination ([7]; in combination with GN123): S ((S) = sensitive)
